# Measured values taken from US20230391786A1, “cGAS INHIBITORS” (Eli Lilly and Company, priority 2022, published 2023).
# Structures can show the parent of a compound that is named as a salt.
# Columns and labels:
# recombinant human cGAS = recombinant human cGAS (Homo sapiens (Human), UniProt Q8N884); experiment: In vitro inhibition assay of cGAS activity (cGAMP production, RapidFire mass spectrometry); type: biochemical; conditions: 10 nM recombinant human cGAS, 60 nM 75-bp dsDNA, ATP, GTP, room temperature 3 hours, read-out: IC50 (μM), In vitro inhibition assay for Compounds 95-348
# In short: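 Product cGAMP was quantified by RapidFire MS against a difluoro-cGAMP internal standard after a formic acid quench. The reaction contained 10 nM recombinant full-length human cGAS, 75-bp dsDNA (60 nM), ATP and GTP (50 μM) and ran for 3 h at room temperature. IC50 values came from 4-parameter nonlinear regression.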
# [1] = system: cGAS activity in THP1 cells (IFNb as marker); experiment: Cellular assay to measure cGAS activity (IFNb production in PMA-differentiated THP1 cells stimulated by RDG-Adenovirus-GFP); type: cell-based, human; conditions: Homo sapiens, THP-1, THP1 cells, PMA differentiated, RDG-Adenovirus-GFP 1000 MOI, IFNb AlphaLISA, overnight incubation; read-out: IC50 (μM), Cellular assay for Compounds 95-348
# In short: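 The readout is secreted IFNb measured by AlphaLISA after overnight compound exposure. THP1 cells, differentiated with PMA for 24 h and rested overnight, were infected with RDG-Adenovirus-GFP (1000 MOI, 4 h) before compounds were added; IC50 came from a 4-parameter logistic fit of inhibition against log concentration.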
# Chain of recombinant human cGAS (Q8N884 whole entry): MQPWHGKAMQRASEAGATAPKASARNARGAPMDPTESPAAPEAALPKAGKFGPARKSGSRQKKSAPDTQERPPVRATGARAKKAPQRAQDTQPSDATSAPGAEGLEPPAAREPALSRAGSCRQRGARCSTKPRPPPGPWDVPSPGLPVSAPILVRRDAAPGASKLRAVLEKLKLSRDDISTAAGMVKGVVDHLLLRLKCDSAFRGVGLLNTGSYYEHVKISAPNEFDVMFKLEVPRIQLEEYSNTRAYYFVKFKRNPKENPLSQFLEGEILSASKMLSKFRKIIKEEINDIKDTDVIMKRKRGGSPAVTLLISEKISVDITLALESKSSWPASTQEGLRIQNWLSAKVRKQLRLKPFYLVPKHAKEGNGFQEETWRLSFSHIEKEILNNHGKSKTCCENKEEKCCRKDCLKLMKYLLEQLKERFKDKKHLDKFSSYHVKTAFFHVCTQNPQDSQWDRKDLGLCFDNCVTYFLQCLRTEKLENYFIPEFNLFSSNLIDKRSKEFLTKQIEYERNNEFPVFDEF
Compound,IC50 (recombinant human cGAS),IC50 [1]
"Clc1ccc2c(-c3cn[nH]c3)c3n(c2c1Cl)CC(Nc1ncccn1)CC3 (stereo not drawn) [Example 191, 3,4-Dichloro-10-(1H-pyrazol-4-yl)-N-pyrimidin-2-yl-6,7,8,9-tetrahydropyrido[1,2-a]indol-7-amine]",0.0763 µM,8.53 µM
"N#CCNc1cc(Cl)c(Cl)c2c1c(-c1cn[nH]c1)c1n2CCNC1=O [Example 135, 2-[[6,7-Dichloro-1-oxo-10-(1H-pyrazol-4-yl)-3,4-dihydro-2H-pyrazino[1,2-a]indol-9-yl]amino]acetonitrile]",0.0486 µM,> 10 µM
"O=C(CO)Nc1cc(Cl)c(Cl)c2c1c(-c1cn[nH]c1)c1n2CCN(C(=O)CO)C1 [Example 145, N-(6,7-Dichloro-2-(2-hydroxyacetyl)-10-(1H-pyrazol-4-yl)-1,2,3,4-tetrahydropyrazino[1,2-a]indol-9-yl)-2-hydroxyacetamide]",0.0804 µM,> 10 µM
"NC1(C(=O)N2CCn3c(c(-c4cn[nH]c4)c4ccc(Cl)c(Cl)c43)C2)CCOCC1 [Example 147, (4-Aminotetrahydro-2H-pyran-4-yl)(6,7-dichloro-10-(1H-pyrazol-4-yl)-3,4-dihydropyrazino[1,2-a]indol-2(1H)-yl)methanone]",0.0474 µM,4.63 µM
"OCCn1cc(-n2cc(-c3cn[nH]c3)c3ccc(Cl)c(F)c32)nn1 [Example 218, 2-[4-[6-Chloro-7-fluoro-3-(1H-pyrazol-4-yl)indol-1-yl]triazol-1-yl]ethanol]",0.0679 µM,3.27 µM
"NCCn1cc(-n2cc(-c3cn[nH]c3)c3ccc(Cl)c(Cl)c32)nn1 [Example 214, 2-[4-[6,7-Dichloro-3-(1H-pyrazol-4-yl)indol-1-yl]triazol-1-yl]ethanamine hydrochloride]",0.0686 µM,0.885 µM
"CC(=O)NCc1[nH]c2c(Cl)c(Cl)cc(OCC#N)c2c1-c1cn[nH]c1 [Example 153, N-((6,7-Dichloro-4-(cyanomethoxy)-3-(1H-pyrazol-4-yl)-1H-indol-2-yl)methyl)acetamide]",0.00511 µM,0.807 µM
"O=C(CO)NC1CCc2c(-c3cn[nH]c3)c3ccc(Cl)c(Cl)c3n2C1 (stereo not drawn) [Example 95, N-[3,4-Dichloro-10-(1H-pyrazol-4-yl)-6,7,8,9-tetrahydropyrido[1,2-a]indol-7-yl]-2-hydroxy-acetamide]",0.0159 µM,2.06 µM
"OCC(O)Cn1cc(-n2cc(-c3cn[nH]c3)c3ccc(Cl)c(Cl)c32)nn1 (stereo not drawn) [Example 140, 3-[4-[6,7-Dichloro-3-(1H-pyrazol-4-yl)indol-1-yl]triazol-1-yl]propane-1,2-diol]",0.0481 µM,7.11 µM
"COc1cc2c(-c3cn[nH]c3)cn(-c3cn(CCO)nn3)c2cc1Cl [Example 152, 2-[4-[6-Chloro-5-methoxy-3-(1H-pyrazol-4-yl)indol-1-yl]triazol-1-yl]ethanol]",0.0142 µM,1.4 µM
"OCCCOc1cc(Cl)c(Cl)c2[nH]cc(-c3cn[nH]c3)c12 [Example 193, 3-[[6,7-Dichloro-3-(1H-pyrazol-4-yl)-1H-indol-4-yl]oxy]propan-1-ol]",0.00322 µM,0.143 µM
"OCCn1cc(-n2cc(-c3cn[nH]c3)c3ccc(Cl)c(Cl)c32)nn1 [Example 138, 2-[4-[6,7-Dichloro-3-(1H-pyrazol-4-yl)indol-1-yl]triazol-1-yl]ethanol]",0.0462 µM,4.99 µM

# The remaining lines, values ahead:
IC50 (recombinant human cGAS),IC50 [1],Compound
0.0089 µM,1 µM,"CN1CCO[C@@H](C(=O)N2CCn3c(c(-c4cn[nH]c4)c4c(OCC#N)cc(Cl)c(Cl)c43)C2)C1 [Example 281, (R)-2-((6,7-Dichloro-2-(4-methylmorpholine-2-carbonyl)-10-(1H-pyrazol-4-yl)-1,2,3,4-tetrahydropyrazino[1,2-a]indol-9-yl)oxy)acetonitrile]"
0.00338 µM,0.902 µM,"N#CCOc1cc(Cl)c(Cl)c2c1c(-c1cn[nH]c1)c1n2CC[C@@H]1NC(=O)CO [Example 344, (S)—N-(5,6-Dichloro-8-(cyanomethoxy)-9-(1H-pyrazol-4-yl)-2,3-dihydro-1H-pyrrolo[1,2-a]indol-1-yl)-2-hydroxyacetamide]"
0.0378 µM,> 10 µM,"CN1CC(C(=O)N2CCn3c(c(-c4cn[nH]c4)c4ccc(Cl)c(Cl)c43)C2)CCC1=O (stereo not drawn) [Example 305, 5-(6,7-Dichloro-10-(1H-pyrazol-4-yl)-1,2,3,4-tetrahydropyrazino[1,2-a]indole-2-carbonyl)-1-methylpiperidin-2-one]"
0.0251 µM,> 10 µM,"NC(=O)CCC(=O)N1CCn2c(c(-c3cn[nH]c3)c3ccc(Cl)c(Cl)c32)C1 [Example 297, 4-(6,7-Dichloro-10-(1H-pyrazol-4-yl)-3,4-dihydropyrazino[1,2-a]indol-2(1H)-yl)-4-oxobutanamide]"
0.0291 µM,> 10 µM,"CN(C)C(=O)COCC(=O)N1CCn2c(c(-c3cn[nH]c3)c3ccc(Cl)c(Cl)c32)C1 [Example 301, 2-(2-(6,7-Dichloro-10-(1H-pyrazol-4-yl)-3,4-dihydropyrazino[1,2-a]indol-2(1H)-yl)-2-oxoethoxy)-N,N-dimethylacetamide]"
0.0313 µM,9.23 µM,"CS(=O)(=O)NC1Cc2c(-c3cn[nH]c3)c3ccc(Cl)c(Cl)c3n2C1 (stereo not drawn) [Example 246, N-(5,6-Dichloro-9-(1H-pyrazol-4-yl)-2,3-dihydro-1H-pyrrolo[1,2-a]indol-2-yl)methanesulfonamide]"
0.0423 µM,7.9 µM,"CC(=O)N(C)CCC(=O)N1CCn2c(c(-c3cn[nH]c3)c3ccc(Cl)c(Cl)c32)C1 [Example 308, N-(3-(6,7-Dichloro-10-(1H-pyrazol-4-yl)-3,4-dihydropyrazino[1,2-a]indol-2(1H)-yl)-3-oxopropyl)-N-methylacetamide]"
0.019 µM,2.05 µM,"CCOc1cc(Cl)c(Cl)c2c1c(-c1cn[nH]c1)c1n2CC[C@H]1NC(C)=O [Example 235, (R)—N-(5,6-Dichloro-8-ethoxy-9-(1H-pyrazol-4-yl)-2,3-dihydro-1H-pyrrolo[1,2-a]indol-1-yl)acetamide]"
0.0349 µM,> 10 µM,"CN1CCC(C(=O)N2CCn3c(c(-c4cn[nH]c4)c4ccc(Cl)c(Cl)c43)C2)CC1=O (stereo not drawn) [Example 303, 4-(6,7-Dichloro-10-(1H-pyrazol-4-yl)-1,2,3,4-tetrahydropyrazino[1,2-a]indole-2-carbonyl)-1-methylpiperidin-2-one]"
0.0447 µM,> 10 µM,"Cc1nc(C)n(CC(=O)N2CCn3c(c(-c4cn[nH]c4)c4c(OCC#N)cc(Cl)c(Cl)c43)C2)n1 [Example 293, 2-((6,7-Dichloro-2-(2-(3,5-dimethyl-1H-1,2,4-triazol-1-yl)acetyl)-10-(1H-pyrazol-4-yl)-1,2,3,4-tetrahydropyrazino[1,2-a]indol-9-yl)oxy)acetonitrile]"
0.0288 µM,> 10 µM,"CN1CCC(CC(=O)N2CCn3c(c(-c4cn[nH]c4)c4ccc(Cl)c(Cl)c43)C2)C1=O (stereo not drawn) [Example 300, 3-(2-(6,7-Dichloro-10-(1H-pyrazol-4-yl)-3,4-dihydropyrazino[1,2-a]indol-2(1H)-yl)-2-oxoethyl)-1-methylpyrrolidin-2-one]"
0.0261 µM,0.964 µM,"COc1cc2c(-c3cn[nH]c3)cn(-c3ccc(CO)nn3)c2cc1Cl [Example 342, (6-(6-chloro-5-methoxy-3-(1H-pyrazol-4-yl)-1H-indol-1-yl)pyridazin-3-yl)methanol]"
